The test system of data set [1] is fructose rats (non insulin dependent diabetes model). In words: Antidiabetic activity on fructose rats. The class given is in vivo. To be noted: for glycemia D 0: D0 before start of treatment (baseline); for glycemia D3: day 3 of daily treatment; for glycemia D7: day 7 of daily treatment; for glycemia D21: day 21 of daily treatment. The text has this:
1—Antidiabetic Activity on Fructose Rats
The model of the fructose rats is a non insulin dependent diabetes (NIDD) similar to the observed human type 2 diabetes.
In this study, the NP 01 product contains reverse micelles based on vanadium, prepared according to example 2. Its therapeutic activity is compared with two reference drugs: Metformin and Rosiglitazone.
At D −21, after the period of stalling, rats are weighed and a blood sampling is made to determine the basal values of the biochemical parameters.
The rats are distributed randomly in groups of 10 rats. The drink water is then replaced by a solution of fructose 10% in distilled water. This solution is provided ad libitum for 21 days. They receive then again normal water for the following 21 days of the treatment.
At D 0, animals are weighed and a blood sampling is carried out.
The treatment then starts for a 21-day duration, with a daily administration: • Control group: 1 ml/kg of normal water per os • NP 01group: 2 ml/kg by the rectal route • Metformin group: 50 mg/kg of Metformin per os. • Rosiglitazone group: 5 mg/kg of Rosiglitazone per os
At D 21, blood sample and end of the treatment.

Data set [2] has as its system adryamycin-induced inflammation/oedema in male Wistar rat leg. In words: SOD like activity on rats: test with adryamycin (oedema by plethysmography). The data set is classed as in vivo. On the procedure: 2—<<SOD Like>> Activity on Rats: Test with Adryamycin
The test with adryamycin is a specific test to highlight free anti-radicals activity of a substance. The product contains reverse micelles based on manganese prepared according to example 3.
One hour after injection in the leg of a male Wistar rat of 0.2 ml of a solution of adryamycin, a temporary inflammation appears for approximately 12 hours. A second inflammatory phase begins on the 3rd day and lasts for 5 days. The vascular hyperpermeability and the oedema which results therefrom, with a deterioration of the cells of endothelial membranes, are caused by the release of free radicals. […] The oedema is measured by plethysmography (expressed by % of pow volume).
3 batches of 10 rats are made up: • negative batch controls: olive oil administration (2 ml/kg) by rectal route • positive batch controls: administration of 100 mg/kg of diosmine • batch treated by NP 02 (manufactured according to example 3): 2 ml/kg by rectal route Results (SD Stands for Standard Deviation)—FIG. 3

For a further data set, the system named is growing rats. In words: Stimulation of the osseous growth on growing rats (femoral diameter). The class given is in vivo, Wistar female rats. The settings on record: once per day during 6 weeks, rectal route. As to the method: 3—Stimulation of the Osseous Growth on Growing Rats
The objective of this study is the assessment of a stimulation activity of the osseous growth in growing rats.
The product contains reverse micelles based on strontium prepared according to example 4.
(§1) The animals are Wistar female rats of 200 g (average).
(§2) Homogeneous batches of 10 rats are made up starting from their weight.
(§3) The treatment is administered once per day during 6 weeks.
(§4) Administered batches and products: • control batch (administration of olive oil by rectal route) • SrCl2 batch (SrCl2 and strontium ranelate are known active ingredients for the osseous growth and treatment of osteoporosis). 68.2 mg of metal Sr/kg/day are administered by rectal route. • NP 05 A batch: product prepared according to example 4 of the invention, with 12.5 mg metal Sr/kg/day.
(§5) NP 05 B batch: product prepared according to example 5 of the invention, with 1.21 mg metal Sr/kg/day.
(§6) NP 05 C batch: product prepared according to example 6 of the invention, with 0.12 mg metal Sr/kg/day.
(§7) Parameters analyzed at the end of the treatment: • animals weight • measurement of the diameter of the rats femoral head after euthanasia and sampling (slide caliper under binocular magnifying glass) • Strontium amount in bone (by atomic absorption). • Strontium amount in plasma (by atomic absorption). Results

The nature of data set [3]: Strontium amount in bone and plasma of growing rats (atomic absorption). The data set is classed as in vivo, Wistar female rats. To be noted: end of 6 weeks treatment. As to the method:
as §1, §2, §3, §4, §5, §6, §7

These results are taken from US9173838B2, “Reverse micelle compositions for delivery of metal cations comprising a diglyceride and a phytosterol and method of preparation” (MEDESIS PHARMA SA, priority 2004, dated 2015).

Molecules are shown by their SMILES.

Turning to `CN(C)C(=N)N=C(N)N` [Metformin], in data set [1], the “glycemia D 0” value was found to be 10.64 mmol/L, the “glycemia D3” value worked out at 10.63 mmol/L, the “glycemia D7” value is 9.68 mmol/L and the “glycemia D21” value worked out at 8.91 mmol/L.
`COc1ccc(-c2cc(=O)c3c(O)cc(O[C@@H]4O[C@H](CO[C@@H]5O[C@@H](C)[C@H](O)[C@@H](O)[C@H]5O)[C@@H](O)[C@H](O)[C@H]4O)cc3o2)cc1O` [Positive control, diosmine]: the “free anti-radicals activity (in words)” value in data set [2] is given as “free anti-radical activity similar to Manganese superoxydismutase”. In addition, in data set [2] (Wistar rats, D1), the “% of pow volume D1” value is 106.7%. The “% of pow volume D2” value in data set [2] (Wistar rats, D2) is 120.8%. For the same compound, the “% of pow volume D3” value in data set [2] (Wistar rats, D3) came out at 152.2%. For the same compound, the “% of pow volume D4” value in data set [2] (Wistar rats, D4) stood at 163%. For the same compound, the “% of pow volume D5” value in data set [2] (Wistar rats, D5) amounted to 177.6%. Besides, the “% of pow volume D6” value in data set [2] (Wistar rats, D6) turned out to be 177.5%. The “% of pow volume D7” value in data set [2] (Wistar rats, D7) is recorded as 168.2%. For the same compound, the “% of pow volume D8” value in data set [2] (Wistar rats, D8) is recorded as 163.5%.
For the compound `CN(CCOc1ccc(CC2SC(=O)NC2=O)cc1)c1ccccn1` (stereo not shown) [Rosiglitazone], in data set [1], the “glycemia D 0” value was found to be 10.38 mmol/L, the “glycemia D3” value worked out at 10.47 mmol/L, the “glycemia D7” value was 9.37 mmol/L and the “glycemia D21” value amounted to 9.13 mmol/L.
Regarding `[Cl-].[Cl-].[Sr+2]` [SrCl2], the Femoral diameter with growing rats is 3.93 mm. In data set [3], this compound gave a Sr in bone of 1508.83 µg/g.
